Results from patent publication EP1202975B1, “SUBSTITUTED POLYCYCLIC ARYL AND HETEROARYL PYRAZINONES USEFUL FOR SELECTIVE INHIBITION OF THE COAGULATION CASCADE” (Pharmacia Corporation, priority 1999, dated 2000).
Read-outs that look alike come from different tables or passages of the source.

Legend:
TF-VIIa = target: T1, TF-VIIa (Homo sapiens, UniProt P08709); assay: TF-VIIa Assay; type: biochemical
T1 construct: 2nM recombinant human factor VIIa; purchased American Diagnostica, Greenwich CT; host or cells: soluble TF made in house in E. coli
T1 sequence (P08709 213-466 limits assumed): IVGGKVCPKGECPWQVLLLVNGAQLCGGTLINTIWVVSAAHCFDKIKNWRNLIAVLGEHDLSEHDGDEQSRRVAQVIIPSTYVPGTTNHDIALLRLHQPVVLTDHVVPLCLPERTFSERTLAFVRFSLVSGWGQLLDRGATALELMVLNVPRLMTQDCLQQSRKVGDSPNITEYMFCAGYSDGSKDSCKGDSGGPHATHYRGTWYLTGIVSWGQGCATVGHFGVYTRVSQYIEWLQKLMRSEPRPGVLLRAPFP
T1 sequence (P08709 61-212 limits assumed): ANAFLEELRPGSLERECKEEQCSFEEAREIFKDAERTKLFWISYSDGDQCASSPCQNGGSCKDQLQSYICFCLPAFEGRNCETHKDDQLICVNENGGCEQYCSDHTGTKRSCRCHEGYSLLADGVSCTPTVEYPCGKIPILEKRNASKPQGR
T1 sequence (P13726 33-251 partner limits assumed): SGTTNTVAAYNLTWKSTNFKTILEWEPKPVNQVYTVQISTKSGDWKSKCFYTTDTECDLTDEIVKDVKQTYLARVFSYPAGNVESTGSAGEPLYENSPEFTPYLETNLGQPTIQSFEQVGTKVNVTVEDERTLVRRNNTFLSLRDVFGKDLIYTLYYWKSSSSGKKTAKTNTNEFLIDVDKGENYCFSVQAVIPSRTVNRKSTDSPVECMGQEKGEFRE

Human factor Xa = Human factor Xa (Homo sapiens, UniProt P00742); assay: Xa Assay; details: for IC50: read-out: IC50 or % Inhibition Factor Xa (30 µM), cells given as a plain number (IC50); for IC50 or % Inhibition Factor Xa (30 µM): % inhibition at 30 µM
Chain of Human factor Xa (P00742 235-488 limits assumed): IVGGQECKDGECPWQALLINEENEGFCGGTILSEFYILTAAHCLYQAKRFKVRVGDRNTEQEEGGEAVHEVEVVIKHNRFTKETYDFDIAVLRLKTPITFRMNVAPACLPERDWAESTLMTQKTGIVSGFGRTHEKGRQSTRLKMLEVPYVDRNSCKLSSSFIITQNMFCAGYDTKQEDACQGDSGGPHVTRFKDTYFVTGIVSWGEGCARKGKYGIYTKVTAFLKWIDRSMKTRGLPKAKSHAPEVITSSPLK
Chain of Human factor Xa (P00742 41-179 limits assumed): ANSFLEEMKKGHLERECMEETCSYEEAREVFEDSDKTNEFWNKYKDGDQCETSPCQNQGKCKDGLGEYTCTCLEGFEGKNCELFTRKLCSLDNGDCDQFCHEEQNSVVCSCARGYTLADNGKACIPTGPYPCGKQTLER

[1] = read-out: IC50 or % Inhibition TF-VIIa (30 µM); cells given as a plain number (IC50)
[2] = cells given as a plain number (IC50); read-out: IC50 or % Inhibition TF-VIIa (30 µM)

| SMILES | IC50 (TF-VIIa; [1]) [µM] | IC50 (Human factor Xa) [µM] | further results |
| --- | --- | --- | --- |
| N=C(N)c1ccc(CNC(=O)Cn2c(-c3ccc(F)cc3)c(Cl)nc(NCc3ccccc3)c2=O)cc1 [1515-07] | 14.2 | > 30 |  |
| N=C(N)c1ccc(CNC(=O)Cn2c(-c3cccc(F)c3)c(Cl)nc(NCc3ccccc3)c2=O)cc1 [1515-09] | 4.1 | > 30 |  |
| N=C(N)c1ccc(CNC(=O)Cn2c(-c3cccc(Br)c3)c(Cl)nc(NCc3ccccc3)c2=O)cc1 [1515-10] | 5.7 | > 30 |  |
| N=C(N)c1ccc(CNC(=O)Cn2c(-c3ccccc3F)c(Cl)nc(NCc3ccccc3)c2=O)cc1 [1515-11] | 4.3 | > 30 |  |
| N=C(N)c1ccc(CNC(=O)Cn2c(-c3ccccc3C(F)(F)F)c(Cl)nc(NCc3ccccc3)c2=O)cc1 [1515-12] | 6.3 | > 30 |  |
| N=C(N)c1ccc(CNC(=O)Cn2c(-c3cccc(C(F)(F)F)c3)c(Cl)nc(NCCc3ccccc3)c2=O)cc1 [1515-25] |  | > 30 | IC50 (TF-VIIa; [2]): 2.9 µM |
| COc1ccccc1-c1c(Cl)nc(NCCc2ccccc2)c(=O)n1CC(=O)NCc1ccc(C(=N)N)cc1 [1515-26] |  | > 30 | IC50 (TF-VIIa; [2]): 1.6 µM |
| N=C(N)c1ccc(CNC(=O)Cn2c(-c3sccc3Br)c(Cl)nc(NCCc3ccccc3)c2=O)cc1 [1515-27] | 1.1 | > 30 |  |
| N=C(N)c1ccc(CNC(=O)Cn2c(-c3cccs3)c(Cl)nc(NCCc3ccccc3)c2=O)cc1 [1515-30] | 1.2 | > 30 |  |
| N=C(N)c1ccc(CNC(=O)Cn2c(-c3cccc(F)c3)c(Cl)nc(NCCc3ccccc3)c2=O)cc1 [1515-33] |  | > 30 | IC50 (TF-VIIa; [2]): 2.3 µM |
| N=C(N)c1ccc(CNC(=O)Cn2c(-c3cccc(Br)c3)c(Cl)nc(NCCc3ccccc3)c2=O)cc1 [1515-34] | 4.4 | > 30 |  |
| N=C(N)c1ccc(CNC(=O)Cn2c(-c3ccccc3F)c(Cl)nc(NCCc3ccccc3)c2=O)cc1 [1515-35] |  | > 30 | IC50 (TF-VIIa; [2]): 1.8 µM |
| CCCCNc1nc(Cl)c(-c2ccccc2)n(CC(=O)NCc2ccc(C(=N)N)cc2)c1=O [1517-35] |  |  | IC50 or % Inhibition TF-VIIa (30 µM) (TF-VIIa; % inhibition at 30 µM): 33%; IC50 or % Inhibition Factor Xa (30 µM) (Human factor Xa): 0% |
| CC(C)CCNc1nc(Cl)c(-c2ccccc2)n(CC(=O)NCc2ccc(C(=N)N)cc2)c1=O [1517-40] |  |  | IC50 (TF-VIIa; [2]): 1.2 µM; IC50 or % Inhibition Factor Xa (30 µM) (Human factor Xa): 0% |
| CC(C)(C)CCNc1nc(Cl)c(-c2ccccc2)n(CC(=O)NCc2ccc(C(=N)N)cc2)c1=O [1517-41] |  |  | IC50 (TF-VIIa; [2]): 2.2 µM; IC50 or % Inhibition Factor Xa (30 µM) (Human factor Xa): 0% |
| N=C(N)c1ccc(CNC(=O)Cn2c(-c3ccccc3)c(Cl)nc(NCCN3CCCC3)c2=O)cc1 [1522-08] | 0.27 | > 30 |  |

Further lines, with some results ahead:

| IC50 (TF-VIIa; [1]) [µM] | IC50 (Human factor Xa) [µM] | SMILES | further results |
| --- | --- | --- | --- |
| 2.9 | > 30 | COc1ccccc1-c1c(Cl)nc(NC2CCC2)c(=O)n1CC(=O)NCc1ccc(C(=N)N)cc1 [1515-14] |  |
| 8.8 | > 30 | N=C(N)c1ccc(CNC(=O)Cn2c(-c3ccccc3Cl)c(Cl)nc(NC3CCC3)c2=O)cc1 [1515-16] |  |
| 4.4 | > 30 | COc1cccc(-c2c(Cl)nc(NC3CCC3)c(=O)n2CC(=O)NCc2ccc(C(=N)N)cc2)c1 [1515-17] |  |
| 0.6 | > 30 | N=C(N)c1ccc(CNC(=O)Cn2c(-c3cccs3)c(Cl)nc(NC3CCC3)c2=O)cc1 [1515-18] |  |
| 24.2 | > 30 | N=C(N)c1ccc(CNC(=O)Cn2c(-c3ccc(F)cc3)c(Cl)nc(NC3CCC3)c2=O)cc1 [1515-19] |  |
|  | > 30 | N=C(N)c1ccc(CNC(=O)Cn2c(-c3ccc(C(F)(F)F)cc3)c(Cl)nc(NC3CCC3)c2=O)cc1 [1515-20] | IC50 or % Inhibition TF-VIIa (30 µM) (TF-VIIa): 32% |
|  | > 30 | N=C(N)c1ccc(CNC(=O)Cn2c(-c3cccc(Br)c3)c(Cl)nc(NC3CCC3)c2=O)cc1 [1515-22] | IC50 (TF-VIIa; [2]): 4.2 µM |
| 6.2 | > 30 | N=C(N)c1ccc(CNC(=O)Cn2c(-c3ccccc3F)c(Cl)nc(NC3CCC3)c2=O)cc1 [1515-23] |  |
| 1.6 | > 30 | N=C(N)c1ccc(CNC(=O)Cn2c(-c3ccccc3C(F)(F)F)c(Cl)nc(NC3CCC3)c2=O)cc1 [1515-24] |  |
